The target in test [1] is T1, human full-length MKNK1 (Homo sapiens (Human), UniProt Q9BUB5, T344D). The experiment in a line: MKNK1 kinase high ATP assay (TR-FRET-based). It is filed as biochemical. The settings on record: 2 mM ATP final conc.; 15 min preincubation with enzyme. As to the method:
MKNK1 Kinase High ATP Assay
MKNK1-inhibitory activity at high ATP of compounds of the present invention after their preincubation with MKNK1 was quantified employing the TR-FRET-based MKNK1 high ATP assay as described in the following paragraphs.
As substrate for the kinase reaction the biotinylated peptide biotin-Ahx-[…] (C-terminus in amide form) was used, which can be purchased e.g. from the company Biosyntan (Berlin-Buch, Germany).
(§1) For the assay 50 nL of a 100 fold concentrated solution of the test compound in DMSO was pipetted into a black low volume 384 well microtiter plate (Greiner Bio-One, Frickenhausen, Germany), 2 μL of a solution of MKNK1 in aqueous assay buffer [50 mM HEPES pH 7.5, 5 mM magnesium chloride, 1.0 mM dithiothreitol, 0.005% (v/v) Nonidet-P40 (Sigma)] was added and the mixture was incubated for 15 min at 22° C. to allow pre-binding of the test compounds to the enzyme before the start of the kinase reaction. Then the kinase reaction was started by the addition of 3 μL of a solution of adenosine-tri-phosphate (ATP, 3.3 mM=>final conc. in the 5 μL assay volume is 2 mM) and substrate (0.1 μM=>final conc. in the 5 μL assay volume is 0.06 μM) in assay buffer and the resulting mixture was incubated for a reaction time of 30 min at 22° C. The concentration of MKNK1 was adjusted depending of the activity of the enzyme lot and was chosen appropriate to have the assay in the linear range, typical concentrations were in the range of 0.003 μg/mL. The reaction was stopped by the addition of 5 μL of a solution of TR-FRET detection reagents (5 nM streptavidine-XL665 [Cisbio Bioassays, Codolet, France] and 1 nM anti-ribosomal protein S6 (pSer236)-antibody from Invitrogen [#44921G] and 1 nM LANCE EU-W1024 labeled ProteinG [Perkin-Elmer, product no. AD0071]) in an aqueous EDTA-solution (100 mM EDTA, 0.1% (w/v) bovine serum albumin in 50 mM HEPES pH 7.5).
(§2) The resulting mixture was incubated for 1 h at 22° C. to allow the formation of complex between the phosphorylated biotinylated peptide and the detection reagents. Subsequently the amount of phosphorylated substrate was evaluated by measurement of the resonance energy transfer from the Eu-chelate to the streptavidine-XL. Therefore, the fluorescence emissions at 620 nm and 665 nm after excitation at 350 nm were measured in a TR-FRET reader, e.g. a Rubystar (BMG Labtechnologies, Offenburg, Germany) or a Viewlux (Perkin-Elmer). The ratio of the emissions at 665 nm and at […] was taken as the measure for the amount of phosphorylated substrate. The data were normalised (enzyme reaction without inhibitor=0% inhibition, all other assay components but no enzyme=100% inhibition).

Test [2] concerns the target T1, human full-length MKNK1. The experiment in a line: MKNK1 kinase assay (MKNK1 TR-FRET assay). It is filed as biochemical. The settings on record: 10 μM ATP final conc.; 15 min preincubation with enzyme. As to the method:
MKNK1-inhibitory activity of compounds of the present invention was quantified employing the MKNK1 TR-FRET assay as described in the following paragraphs.
As substrate for the kinase reaction the biotinylated peptide biotin-Ahx-[…] (C-terminus in amide form) was used which can be purchased e.g. form the company Biosyntan (Berlin-Buch, Germany).
as §1, with “16.7 μM=>final” for “3.3 mM=>final”, “10 μM)” for “2 mM)”, “45” for “30”, “0.05 μg/ml.” for “0.003 μg/mL.”
as §2

T1 sequence (Q9BUB5 other isoform, or with tags, fused parts or gaps T344D): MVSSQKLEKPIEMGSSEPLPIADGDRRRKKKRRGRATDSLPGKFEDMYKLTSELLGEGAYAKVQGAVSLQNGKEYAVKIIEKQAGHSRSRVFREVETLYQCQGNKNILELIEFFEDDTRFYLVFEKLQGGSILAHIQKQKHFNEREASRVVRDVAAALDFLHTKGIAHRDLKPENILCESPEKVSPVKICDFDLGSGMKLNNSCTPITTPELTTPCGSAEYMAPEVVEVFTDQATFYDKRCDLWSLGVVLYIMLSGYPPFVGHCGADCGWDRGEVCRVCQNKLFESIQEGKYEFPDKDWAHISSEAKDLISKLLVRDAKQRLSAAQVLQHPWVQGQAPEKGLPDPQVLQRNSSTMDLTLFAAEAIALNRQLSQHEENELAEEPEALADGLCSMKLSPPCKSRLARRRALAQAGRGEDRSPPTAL

Regarding `NC1(COc2ccc3ncc(-c4cc5ccccc5o4)n3n2)CC1` [Example 51, 1-({[3-(1-Benzofuran-2-yl)imidazo[1,2-b]pyridazin-6-yl]oxy}methyl)cyclopropanamine], the 50% inhibitory concentration (IC50) turned out to be 74 nM on human full-length MKNK1 [1] and 29 nM at human full-length MKNK1 [2].
As to `N[C@H](COc1ccc2ncc(-c3cc4cc(Cl)ccc4o3)n2n1)c1ccccc1` [Example 19, (1S)-2-{[3-(5-Chloro-1-benzofuran-2-yl)imidazo[1,2-b]pyridazin-6-yl]oxy}-1-phenylethanamine], the IC50 against human full-length MKNK1 [1] was 111 nM; against human full-length MKNK1 [2] it was 25 nM.
For `COc1cccc2oc(-c3cnc4ccc(OCCCCN)nn34)cc12` [Example 1, 4-{[3-(4-Methoxy-1-benzofuran-2-yl)imidazo[1,2-b]pyridazin-6-yl]oxy}butan-1-amine] the same measures were 5 nM and 3 nM.
On to `C[C@@H](N)COc1ccc2ncc(-c3cc4cc(Cl)ccc4o3)n2n1` [Example 43, (2R)-1-{[3-(5-Chloro-1-benzofuran-2-yl)imidazo[1,2-b]pyridazin-6-yl]oxy}-propan-2-amine], for which the results for the IC50 at human full-length MKNK1 [1] and against human full-length MKNK1 [2] were 62 nM and 33 nM, respectively.
For the compound `NCCCCOc1ccc2ncc(-c3cc4ccccc4o3)n2n1` [Example 8, 4-{[3-(1-Benzofuran-2-yl)imidazo[1,2-b]pyridazin-6-yl]oxy}butan-1-amine], the concentration for half-maximal inhibition (IC50) against human full-length MKNK1 [1] is 17 nM; on human full-length MKNK1 [2], 7 nM.
For the compound `NCC(CN)Oc1ccc2ncc(-c3cc4ccccc4o3)n2n1` [Example 34, 2-{[3-(1-Benzofuran-2-yl)imidazo[1,2-b]pyridazin-6-yl]oxy}propane-1,3-diamine], the IC50 on human full-length MKNK1 [1] turned out to be 92 nM; against human full-length MKNK1 [2], 39 nM.
The corresponding values for `NCC(Oc1ccc2ncc(-c3cc4ccccc4o3)n2n1)C1CCOC1` (stereo not shown) [Example 35, 2-{[3-(1-Benzofuran-2-yl)imidazo[1,2-b]pyridazin-6-yl]oxy}-2-(tetrahydrofuran-3-yl)ethanamine] are 52 nM and 32 nM.
In the case of `C[C@H](N)COc1ccc2ncc(-c3cc4ccccc4o3)n2n1` [Example 7, (2S)-1-{[3-(1-Benzofuran-2-yl)imidazo[1,2-b]pyridazin-6-yl]oxy}propan-2-amine], the IC50 against human full-length MKNK1 [1] is 18 nM; against human full-length MKNK1 [2], 7 nM.
`N[C@H](COc1ccc2ncc(-c3cc4ccccc4o3)n2n1)Cc1ccccc1` [Example 50, (2S)-1-{[3-(1-Benzofuran-2-yl)imidazo[1,2-b]pyridazin-6-yl]oxy}-3-phenylpropan-2-amine]: the IC50 against human full-length MKNK1 [1] worked out at 54 nM; against human full-length MKNK1 [2], 27 nM.
Consider `CC(C)(N)CCOc1ccc2ncc(-c3cc4ccccc4o3)n2n1` [Example 14, 4-{[3-(1-Benzofuran-2-yl)imidazo[1,2-b]pyridazin-6-yl]oxy}-2-methylbutan-2-amine], for which the IC50 is 39 nM against human full-length MKNK1 [1] and 20 nM at human full-length MKNK1 [2].
On to `NC[C@H]1C[C@H](Oc2ccc3ncc(-c4cc5ccccc5o4)n3n2)C1` [Example 20, 1-(trans-3-{[3-(1-Benzofuran-2-yl)imidazo[1,2-b]pyridazin-6-yl]oxy}cyclobutyl)-methanamine], for which the IC50 worked out at 6 nM against human full-length MKNK1 [1] and 4 nM on human full-length MKNK1 [2].
As to `N[C@H](COc1ccc2ncc(-c3cc4c(F)cccc4o3)n2n1)c1ccccc1` [Example 46, (1S)-2-{[3-(4-Fluoro-1-benzofuran-2-yl)imidazo[1,2-b]pyridazin-6-yl]oxy}-1-phenylethanamine], the figures for the IC50 at human full-length MKNK1 [1] and against human full-length MKNK1 [2] were 67 nM and 36 nM, respectively.
As to `CC(C)(N)COc1ccc2ncc(-c3cc4ccccc4o3)n2n1` [Example 29, 1-{[3-(1-Benzofuran-2-yl)imidazo[1,2-b]pyridazin-6-yl]oxy}-2-methylpropan-2-amine], the results for the IC50 at human full-length MKNK1 [1] and against human full-length MKNK1 [2] were 59 nM and 17 nM, respectively.
Turning to `CC(CN)COc1ccc2ncc(-c3cc4ccccc4o3)n2n1` (stereo not shown) [Example 40, 3-{[3-(1-Benzofuran-2-yl)imidazo[1,2-b]pyridazin-6-yl]oxy}-2-methylpropan-1-amine], the values for the IC50 against human full-length MKNK1 [1] and against human full-length MKNK1 [2] were 18 nM and 9 nM, respectively.
Consider `N[C@H]1C[C@@H](Oc2ccc3ncc(-c4cc5ccccc5o4)n3n2)C1` [Example 3, cis-3-{[3-(1-Benzofuran-2-yl)imidazo[1,2-b]pyridazin-6-yl]oxy}cyclobutanamine], for which the IC50 against human full-length MKNK1 [1] was found to be 17 nM; against human full-length MKNK1 [2] it was 4 nM.
For `N[C@@H](COc1ccc2ncc(-c3cc4ccccc4o3)n2n1)c1ccccc1` [Example 18, (1R)-2-{[3-(1-Benzofuran-2-yl)imidazo[1,2-b]pyridazin-6-yl]oxy}-1-phenylethanamine] the same measures were 33 nM and 22 nM.
For `N[C@H]1C[C@H](Oc2ccc3ncc(-c4cc5cc(F)ccc5o4)n3n2)C1` [Example 39, trans-3-{[3-(5-Fluoro-1-benzofuran-2-yl)imidazo[1,2-b]pyridazin-6-yl]oxy}-cyclobutanamine], the IC50 against human full-length MKNK1 [1] was 6 nM; at human full-length MKNK1 [2] it was 3 nM.
With `N[C@H]1C[C@H](Oc2ccc3ncc(-c4cc5cc(Cl)ccc5o4)n3n2)C1` [Example 37, trans-3-{[3-(5-Chloro-1-benzofuran-2-yl)imidazo[1,2-b]pyridazin-6-yl]oxy}-cyclobutanamine], the IC50 was 5 nM against human full-length MKNK1 [1] and 4 nM on human full-length MKNK1 [2].
For `COc1cccc2oc(-c3cnc4ccc(OCC(N)C5CC5)nn34)cc12` (stereo not shown) [Example 41, 1-Cyclopropyl-2-{[3-(4-methoxy-1-benzofuran-2-yl)imidazo[1,2-b]pyridazin-6-yl]oxy}ethanamine], the IC50 on human full-length MKNK1 [1] is 27 nM; at human full-length MKNK1 [2], 12 nM.
The corresponding values for `N[C@H]1C[C@H](COc2ccc3ncc(-c4cc5ccccc5o4)n3n2)C1` [Example 22, trans-3-({[3-(1-Benzofuran-2-yl)imidazo[1,2-b]pyridazin-6-yl]oxy}methyl)cyclobutanamine] are 17 nM and 6 nM.
For `C[C@H](N)COc1ccc2ncc(-c3cc4c(F)cccc4o3)n2n1` [Example 45, (2S)-1-{[3-(4-Fluoro-1-benzofuran-2-yl)imidazo[1,2-b]pyridazin-6-yl]oxy}-propan-2-amine] the same measures were 71 nM and 17 nM.
`NCC(COc1ccc2ncc(-c3cc4ccccc4o3)n2n1)c1ccccc1` (stereo not shown) [Example 52, 3-{[3-(1-Benzofuran-2-yl)imidazo[1,2-b]pyridazin-6-yl]oxy}-2-phenylpropan-1-amine]: the figures for the IC50 on human full-length MKNK1 [1] and against human full-length MKNK1 [2] were 30 nM and 17 nM, respectively.
As for `C[C@H](CN)Oc1ccc2ncc(-c3cc4cccc(F)c4o3)n2n1` [Example 48, (2R)-2-{[3-(7-Fluoro-1-benzofuran-2-yl)imidazo[1,2-b]pyridazin-6-yl]oxy}-propan-1-amine], the half-inhibitory concentration (IC50) against human full-length MKNK1 [1] amounted to 115 nM; on human full-length MKNK1 [2], 71 nM.

In general, IC50 refers to the midpoint of a concentration-inhibition curve. A high value points to weaker potency.

(Values after patent publication US9499547B2 (BAYER INTELLECTUAL PROPERTY GMBH, priority 2011, dated 2016).)
